Several values for one entry are separate records, joined by “and”; a condition that tells them apart may be missing. Equal values may be shown once.
What was measured:
[1] = molecular target: T1, branched-chain transaminase (Escherichia coli, UniProt P0AB80); experiment: Substrate specificity of purified branched-chain transaminase for keto acids; assay type: biochemical, E. coli; conditions: for Concentration of 2-oxobutyrate: purified enzyme (1 U/mL), 20 mM L-homoalanine, 20 mM keto acid, pH 7.0, 37° C., 7 hours
T1 construct: made in house; host or cells: E. coli BL21(DE3)
Procedure: Reaction was conducted using the branched-chain transaminase purified in Example 3 and using various L-amino acids and keto acids described in [Table 3] as substrates. After adding 10 μL of the purified enzyme (1 U/mL) to 100 μL of a mixture of 20 mM L-homoalanine, 20 mM keto acid and 50 mM potassium phosphate (pH 7.0), reaction was conducted at 37° C. for 7 hours and the amount of produced 2-oxobutyrate (keto acid of L-homoalanine) was measured. The result is shown in [Table 3].
When trimethylpyruvate and L-homoalanine were used as substrates, the equilibrium constant of the reaction by the branched-chain transaminase was very low at 0.16.

[2] = tested on: ω-transaminase derived from Ochrobactrum anthropi; experiment: Substrate specificity of purified ω-transaminase for keto acids, OawTA; assay type: biochemical; conditions: 20 mM keto acid, 20 mM (S)-α-methylbenzylamine, pH 7.0, 37° C., 6 hours
Procedure: (§1) Reaction was conducted using the ω-transaminase purified in Example 3 and using various keto acids and amine as substrates as described in [Table 6]. After adding 10 μL of the purified enzyme (6 U/mL) to 100 μL of a mixture of 20 mM keto acid, 20 mM (S)-α-methylbenzylamine and 50 mM potassium phosphate (pH 7.0), reaction was conducted at 37° C. for 6 hours and the amount of produced acetophenone (deaminated ketone of (S)-α-methylbenzylamine) was measured. The result was compared with that of the ω-transaminase derived from Ochrobactrum anthropi. The result is shown in [Table 6].

[3] = tested on: ω-transaminase derived from Ochrobactrum anthropi; experiment: Substrate specificity of purified ω-transaminase for keto acids in initial stage of reaction, OawTA; assay type: biochemical; set-up: unit not given here; conditions: 20 mM keto acid, 20 mM (S)-α-methylbenzylamine, pH 7.0, 37° C., 10 minutes
Procedure: as §1, with “7].” for “6].”, “(1” for “(6”, “10 minutes” for “6 hours”

[4] = tested on: ω-transaminase derived from Paracoccus denitrificans (PdwTA); experiment: Substrate specificity of purified ω-transaminase for keto acids in initial stage of reaction, PdwTA; assay type: biochemical; set-up: unit not given here; conditions: purified enzyme (1 U/mL); 20 mM keto acid, 20 mM (S)-α-methylbenzylamine, pH 7.0, 37° C., 10 minutes
Procedure: as §1, with “7].” for “6].”, “(1” for “(6”, “10 minutes” for “6 hours”

[5] = tested on: ω-transaminase derived from Paracoccus denitrificans (PdwTA); experiment: Substrate specificity of purified ω-transaminase for keto acids, PdwTA; assay type: biochemical; conditions: purified enzyme (6 U/mL); 20 mM keto acid, 20 mM (S)-α-methylbenzylamine, pH 7.0, 37° C., 6 hours
Procedure: as §1

[6] = tested on: ω-transaminase derived from Ochrobactrum anthropi; experiment: Substrate specificity of purified ω-transaminase for amino acids (glyoxylate acceptor), OawTA; assay type: biochemical; conditions: 20 mM glyoxylate, 20 mM L-amino acid, pH 7.0, 37° C., 6 hours
Procedure: (§2) Reaction was conducted using the ω-transaminase purified in Example 3 and using various L-amino acids and […] as substrates as described in [Table 5]. After adding 10 μL of the purified enzyme (5 U/mL) to 100 μL of a mixture of 20 mM glyoxylate, 20 mM L-amino acid and 50 mM potassium phosphate (pH 7.0), reaction was conducted at 37° C. for 6 hours and the amount of produced L-glycine was measured. The reaction was conducted 3 times and the result was compared with that of the ω-transaminase derived from Ochrobactrum anthropi. The result is shown in [Table 5].

[7] = molecular target: T1, branched-chain transaminase; experiment: Substrate specificity of branched-chain transaminase for amino acids with trimethylpyruvate, crude extract; assay type: biochemical, E. coli; conditions: 20 mM trimethylpyruvate, 20 mM L-amino acid, pH 7.0, 37° C., 2 hours
Procedure: Reaction was conducted using the crude extract containing the branched-chain transaminase obtained in Example 3 and using various trimethylpyruvate (keto acid of L-tert-leucine) as substrates. After adding 100 μL of the crude extract to 200 μL of a mixture of 20 mM trimethylpyruvate, 20 mM L-amino acid and 50 mM potassium phosphate (pH 7.0), reaction was conducted at 37° C. for 2 hours and the amount of produced L-tert-leucine was measured. The result is shown in [Table 2].

[8] = tested on: ω-transaminase derived from Paracoccus denitrificans (PdwTA); experiment: Substrate specificity of purified ω-transaminase for amino acids (glyoxylate acceptor), PdwTA; assay type: biochemical; conditions: purified enzyme (5 U/mL); 20 mM glyoxylate, 20 mM L-amino acid, pH 7.0, 37° C., 6 hours; reaction conducted 3 times
Procedure: as §2

[9] = molecular target: T1, branched-chain transaminase; experiment: Substrate specificity of purified branched-chain transaminase for amino acids with trimethylpyruvate; assay type: biochemical, E. coli; conditions: purified enzyme (6 U/mL); 20 mM trimethylpyruvate, 20 mM L-amino acid, pH 7.0, 37° C., 6 hours
Procedure: Reaction was conducted using the branched-chain transaminase purified in Example 3 and using various L-amino acids and trimethylpyruvate as substrates as described in [Table 4]. After adding 10 μL of the purified enzyme (6 U/mL) to 100 μL of a mixture of 20 mM trimethylpyruvate, 20 mM L-amino acid and 50 mM potassium phosphate (pH 7.0), reaction was conducted at 37° C. for 6 hours and the amount of produced L-tert-leucine was measured. The result is shown in [Table 4].

[10] = molecular target: T1, branched-chain transaminase; experiment: Substrate specificity of branched-chain transaminase for amino acids, enzyme-containing crude extract; assay type: biochemical, E. coli; conditions: 20 mM L-amino acid, pH 7.0, 37° C., 30 minutes
Procedure: Reaction was conducted using the crude extract containing the branched-chain transaminase obtained in Example 3 and using various L-amino acids and keto acids described in [Table 1] as substrates. After adding 20 μL of the crude extract to 200 μL of a mixture of 20 mM L-amino acid, 20 mM keto acid and 50 mM potassium phosphate (pH 7.0), reaction was conducted at 37° C. for 30 minutes and the amount of produced L-amino acid was measured. The result is shown in [Table 1].

[11] = 20 mM α-ketoglutarate as keto acid

T1 sequence (P0AB80 whole entry): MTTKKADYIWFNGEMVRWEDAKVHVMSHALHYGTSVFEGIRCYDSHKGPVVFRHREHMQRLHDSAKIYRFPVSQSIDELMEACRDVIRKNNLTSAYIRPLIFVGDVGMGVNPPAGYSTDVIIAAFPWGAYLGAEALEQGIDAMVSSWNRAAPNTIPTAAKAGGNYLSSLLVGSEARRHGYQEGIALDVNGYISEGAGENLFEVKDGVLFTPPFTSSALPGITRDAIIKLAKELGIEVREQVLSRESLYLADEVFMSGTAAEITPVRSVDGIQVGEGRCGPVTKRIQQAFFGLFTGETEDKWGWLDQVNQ

Structure (SMILES)	amount of produced acetophenone, OawTA [3]	amount of produced acetophenone, PdwTA [4]	Concentration of L-glycine, OawTA [6]	Concentration of L-glycine, PdwTA [8]	Concentration of L-tert-leucine [9]	also measured
O=C(O)C(=O)C12CC3CC(CC(O)(C3)C1)C2 [2-(3-Hydroxy-1-adamantyl)-2-oxoethanoic acid]						Concentration of 2-oxobutyrate [1]: 5.47 mM
CCC(=O)C(=O)O [2-Oxobutyrate]	0.173	0.821				Concentration of acetophenone, OawTA [2]: 5.05 mM; Concentration of acetophenone, PdwTA [5]: 5.03 mM
CCCCC(=O)C(=O)O [2-Oxohexanoic acid]	0.006	0.713				Concentration of acetophenone, OawTA [2]: 3.07 mM; Concentration of acetophenone, PdwTA [5]: 5.22 mM
CCCC(=O)C(=O)O [2-Oxopentanoic acid]	0.378	1.332				Concentration of acetophenone, OawTA [2]: 3.45 mM; Concentration of acetophenone, PdwTA [5]: 5.24 mM
CC(C)C(=O)C(=O)O [3-Methyl-2-oxobutyrate]						Concentration of acetophenone, OawTA [2]: 0.00 mM; Concentration of acetophenone, PdwTA [5]: 0.00 mM; Concentration of 2-oxobutyrate [1]: 11.93 mM
CCC(C)C(=O)C(=O)O (centres unmarked) [3-Methyl-2-oxoxpentanoic acid]						Concentration of acetophenone, OawTA [2]: 0.00 mM; Concentration of acetophenone, PdwTA [5]: 0.00 mM; Concentration of 2-oxobutyrate [1]: 8.49 mM
CC(C)CC(=O)C(=O)O [4-Methyl-2-oxopentanoic acid]	0.005	0.175				Concentration of acetophenone, OawTA [2]: 0.03 mM; Concentration of acetophenone, PdwTA [5]: 4.99 mM; Concentration of 2-oxobutyrate [1]: 7.27 mM
O=C(O)C(=O)CF [Fluoropyruvate]	0.554	0.339				
O=CC(=O)O [Gyloxylate]	1.733	1.076				
C[C@H](N)C(=O)O [L-Alanine]			11.73 mM	13.92 mM and 13.31 mM and 11.61 mM	2.24 mM and 2.07 mM and 2.23 mM	Production amount of L-tert-leucine [7]: 0.8 mM
N[C@@H](CCC(=O)O)C(=O)O [L-Glutamate]						Production amount of L-amino acid ([10]; 20 mM 2-oxobutyrate as keto acid): 4.2 mM; Production amount of L-tert-leucine [7]: 6.4 mM
CC[C@H](N)C(=O)O [L-Homoalanine]			4.97 mM	12.56 mM and 13.31 mM and 11.26 mM	5.57 mM and 4.43 mM and 5.71 mM	Production amount of L-amino acid [10, 11]: 0.1 mM; Production amount of L-tert-leucine [7]: 7.2 mM
CC[C@H](C)[C@H](N)C(=O)O [L-Isoleucine]			0.00 mM	0.00 mM	7.79 mM and 7.48 mM and 6.51 mM	Production amount of L-amino acid [10, 11]: 2.6 mM; Production amount of L-tert-leucine [7]: 9.2 mM
CC(C)C[C@H](N)C(=O)O [L-Leucine]			0.00 mM	7.93 mM and 7.95 mM and 5.71 mM	6.71 mM and 6.32 mM and 7.06 mM	
CCCC[C@H](N)C(=O)O [L-Norleucine]			0.28 mM	13.41 mM and 12.97 mM and 12.59 mM	5.90 mM and 5.48 mM and 5.55 mM	
CCC[C@H](N)C(=O)O [L-Norvaline]			0.36 mM	13.43 mM and 14.29 mM and 14.12 mM	6.31 mM and 5.34 mM and 6.06 mM	
CC(C)[C@H](N)C(=O)O [L-Valine]			0.00 mM	0.18 mM and 0.20 mM and 0.17 mM	6.31 mM and 5.04 mM and 6.23 mM	Production amount of L-amino acid [10, 11]: 1.6 mM; Production amount of L-tert-leucine [7]: 7.8 mM
CC(C)(C)[C@H](N)C(=O)O [L-tert-Leucine]						Production amount of L-amino acid [10, 11]: 0.06 mM
O=C(O)C(=O)CS [Mercaptopyruvate]	0.012	0.008				
CC(C)(C)C(=O)C(=O)O [Trimethylpyruvate]						Concentration of 2-oxobutyrate [1]: 5.83 mM; equilibrium constant of the reaction by the branched-chain transaminase ([1]; trimethylpyruvate and L-homoalanine as substrates): 0.16
O=C(O)C(=O)CO [β-Hydroxypyruvate]	0.183	0.066				
